The subject of one data set is male OF1 mice. The data set is described as follows: Analgesia test: PBQ (phenylbenzoquinone)-induced abdominal stretches. Format: in vivo, mouse. The following applies: oral, dose of 1 mg/kg, at 2 hours, PBQ 2 mg/kg i.p. The protocol:
The in vivo activity of the compounds of the invention was evaluated in an analgesia test.
Accordingly, intraperitoneal (i.p.) administration of PBQ (phenylbenzoquinone, 2 mg/kg in a 0.9% sodium chloride solution containing 5% of ethanol) to male OF1 mice weighing 25 to 30 g causes abdominal stretches, on average 30 twists or contractions during the period from 5 to 15 minutes after injection. The test compounds are administered orally in suspension in Tween 80 at 0.5%, 60 minutes or 120 minutes before the administration of PBQ. […] For example, compound 58 of the table reduces by 51% the number of stretches induced by PBQ, at a dose of 1 mg/kg at 2 hours.
Regarding `NC(=O)COC(=O)NCCCCOc1cccc2ccccc12` [Compound 58, 2-amino-2-oxoethyl [4-(1-naphthalenyloxy]butyl]-carbamate], the “reduction of the number of stretches induced by PBQ” value amounted to 51%.

System in another data set: not given
Test: not given
Details: not given
The term melting point denotes the temperature, or range, at which the solid turns liquid. For `CNC(=O)COC(=O)NCCOc1ccc(Cl)cc1` [Compound 1, 2-(methylamino)-2-oxoethyl{2-[(4-chlorophenyl)-oxy]ethyl}carbamate], the melting point lay in the range of 147 to 149 °C.
In the case of `N#Cc1ccc(OCCNC(=O)OCC(N)=O)cc1` [Compound 11, 2-amino-2-oxoethyl (2-[(4-cyanophenyl)oxy]ethyl)-carbamate], the melting point fell in the range of 204 to 206 °C.
The compound `NC(=O)COC(=O)NCCCCOc1cccc2ccccc12` [Compound 58, 2-amino-2-oxoethyl [4-(1-naphthalenyloxy]butyl]-carbamate] came in with a melting point of 80 to 82 °C.
In turn, `NC(=O)COC(=O)N1CCC(COc2cccc3ccccc23)C1` (centres unmarked) [Compound 83, 2-amino-2-oxoethyl 3-[(1-naphthalenyloxy)methyl]-1-pyrrolidinecarboxylate] registered a melting point of 161 to 163 °C.
`CNC(=O)COC(=O)N1CCC(Oc2ccc(-c3ccc(F)cc3)cc2)CC1` [Compound 85, 2-(methylamino)-2-oxoethyl 4-[(4′-fluoro-4-biphenyl)-oxy]-1-piperidinecarboxylate] yielded a melting point of 117 to 119 °C.
Compound `CNC(=O)COC(=O)N1CCC(COc2ccc(Br)cc2)CC1` [Compound 120, 2-(methylamino)-2-oxoethyl 4-{[(4-bromophenyl)oxy]-methyl}-1-piperidinecarboxylate] had a melting point of 163 to 165 °C.
Regarding `NC(=O)COC(=O)N1CCC(COc2cccc3ccccc23)CC1` [Compound 137, 2-amino-2-oxoethyl 4-[(1-naphthalenyloxy)methyl]-1-piperidinecarboxylate], the melting point lay within 135 to 136 °C.
In turn, `NC(=O)COC(=O)N1CCC(COc2ccc3cccnc3c2)CC1` [Compound 148, 2-amino-2-oxoethyl 4-[(7-quinolinyloxy)methyl]-1-piperidinecarboxylate] had a melting point of 137 to 139 °C.
Still for that read-out and setting: the value for `CNC(=O)COC(=O)N1CCC(COc2ccc(-c3ccc(C(F)(F)F)cc3)cc2)CC1` [Compound 154, 2-(methylamino)-2-oxoethyl 4-{[(4′-(trifluoromethyl)-4-biphenyl)oxy]methyl}-1-piperidinecarboxylate] was 197 to 199 °C; that for `CNC(=O)COC(=O)N1CCC(CCOc2ccc(Br)cc2)CC1` [Compound 168, 2-(methylamino)-2-oxoethyl 4-{2-[(4-bromophenyl)-oxy]ethyl}-1-piperidinecarboxylate] was 101 to 103 °C.
Same read-out and setting: the value for `NC(=O)COC(=O)N1CCC(CCOc2ccc3ccncc3c2)CC1` [Compound 183, 2-amino-2-oxoethyl 4-[2-(7-isoquinolinyloxy)ethyl]-1-piperidinecarbamate] was 179 to 181 °C.
The same measure, in the same setting: the value for `CNC(=O)COC(=O)N1CCC(CCOc2ccc(-c3ccc(Cl)cc3)cc2)CC1` [Compound 186, 2-(methylamino)-2-oxoethyl 4-{2-[(4′-chloro-4-biphenyl)oxy]ethyl}-1-piperidinecarboxylate] was 104 to 106 °C.

In the next data set the target is T1, FAAH (Fatty Acid Amide Hydrolase) (Mus musculus, UniProt O08914).
T1 construct: Membrane homogenates are prepared at the time of use by homogenizing the tissues in a Polytron; from tissue; host or cells: mouse brain (minus the cerebellum), membrane homogenate
T1 sequence (O08914 1-579): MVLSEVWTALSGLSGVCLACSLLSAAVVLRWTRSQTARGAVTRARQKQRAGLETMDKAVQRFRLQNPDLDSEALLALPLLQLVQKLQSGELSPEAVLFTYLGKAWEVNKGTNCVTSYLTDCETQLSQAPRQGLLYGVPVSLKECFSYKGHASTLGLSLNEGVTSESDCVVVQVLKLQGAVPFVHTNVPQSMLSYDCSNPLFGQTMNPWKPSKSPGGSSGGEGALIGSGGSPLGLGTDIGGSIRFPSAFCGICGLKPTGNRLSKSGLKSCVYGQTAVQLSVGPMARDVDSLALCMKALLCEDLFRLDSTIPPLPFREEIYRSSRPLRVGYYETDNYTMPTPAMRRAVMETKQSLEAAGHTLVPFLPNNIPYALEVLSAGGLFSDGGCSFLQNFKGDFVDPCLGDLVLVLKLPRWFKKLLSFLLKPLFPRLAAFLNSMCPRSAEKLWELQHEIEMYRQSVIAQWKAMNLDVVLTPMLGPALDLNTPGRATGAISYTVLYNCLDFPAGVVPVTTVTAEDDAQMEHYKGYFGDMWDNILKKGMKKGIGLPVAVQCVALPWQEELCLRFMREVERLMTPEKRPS
The data set is described as follows: Radioenzymatic FAAH inhibition assay (hydrolysis of anandamide [ethanolamine 1-3H]) in mouse brain membrane homogenates. Format: biochemical. The following applies: mouse brain membrane homogenate; anandamide 10 μM; 15 minutes at 25° C.; read-out: IC50 (concentration inhibiting by 50% the control enzyme activity of FAAH). As for the experimental part:
The compounds of the invention were subjected to pharmacological tests permitting determination of their inhibitory effect on the enzyme FAAH (Fatty Acid Amide Hydrolase).
Accordingly, mouse brains (minus the cerebellum) are removed and stored at −80° C. Membrane homogenates are prepared at the time of use by homogenizing the tissues in a Polytron in a 10 mM Tris-HCl buffer (pH 8.0) containing 150 mM NaCl and 1 mM EDTA. The enzyme reaction is subsequently conducted in 70 μl of buffer containing bovine serum albumin without fatty acids (1 mg/ml). In succession, the test compounds, at various concentrations, anandamide [ethanolamine 1-^3H] (specific activity: 15-20 Ci/mmol) diluted to 10 μM with cold anandamide, and the membrane preparation (400 μg of frozen tissue per assay) are added. After 15 minutes at 25° C. the enzyme reaction is terminated by adding 140 μl of chloroform/methanol (2:1). The mixture is stirred for 10 minutes and then centrifuged for 15 minutes at 3500 g. An aliquot (30 μl) of the aqueous phase containing the ethanolamine [1-^3H] is counted by liquid scintillation.
As to `NC(=O)COC(=O)NCCCCOc1cccc2ccccc12` [Compound 58, 2-amino-2-oxoethyl [4-(1-naphthalenyloxy]butyl]-carbamate], the IC50 worked out at 0.47 µM.

The values above are taken from patent US8026258B2, “Aryloxyalkylcarbamate-type derivatives, preparation method thereof and use of same in therapeutics” (Sanofi-Aventis, priority 2004, dated 2011).
